Experimental findings from patent US7973080B2 (Ambria Dermatology AB, priority 2003, dated 2011) are described below.

For one assay, the system named is Enterobacter. Nature of the assay: MIC by standard blood agar dilution technique. Particulars: MR tri −. For orientation: Agar dilution tests growth on a series of plates holding different concentrations.
The subject of the next assay is S. maltophilia. Nature of the assay: MIC by standard blood agar dilution technique. Particulars: inoculate size 10^3.

Source text for Enterobacter: (§1) The following bacteria were investigated: methicillin-resistant Staphylococcus aureus (MSRA), fucidic acid-resistant S. aureus, non-resistant S. pyogenes, coagulation-negative staphylococci (for resistance, see Table 1 below) vancomycin-resistant enterococci (Enterococcus CCUG van A and van B), non-resistant Escherichia coli, Acinetobacter resistant against cefadroxil, nitrofurantin, mecillinam, Serratia maltophilia resistant against most types of antibiotics, Enterobacter (for resistance, see Table 1 below; additionally resistant against cefadroxil and nitrofurantin), non-resistant α-streptococci, non-resistant Streptococcus Group G, Pseudomonas aeruginosa (for resistance, see Table 2 below). Inocula of 10^3 and 10^5 bacteria were used.
Source text for S. maltophilia: as §1

In the case of `OCCCCCO` [pentane-1,5-diol], the “MIC (% by weight of pentane-1,5-diol)” value in the assay with Enterobacter (Enterobacter 921 × 57097, inoculate size 10^3) was 5.0 % by weight; against Enterobacter (Enterobacter 921 × 57097, inoculate size 10^5) it was 10.0 % by weight; with Enterobacter (Enterobacter 921 × 57100, inoculate size 10^3), 5.0 % by weight; in the assay with Enterobacter (Enterobacter 921 × 57100, inoculate size 10^5), 10.0 % by weight; against Enterobacter (Enterobacter 921 × 57119, inoculate size 10^3), 5.0 % by weight; in the assay with Enterobacter (Enterobacter 921 × 57119, inoculate size 10^5), 10.0 % by weight. The “MIC (% by weight of pentane-1,5-diol)” value is 5.0 % by weight against Enterobacter (Enterobacter 921 × 57416, inoculate size 10^3); 10.0 % by weight in the assay on Enterobacter (Enterobacter 921 × 57416, inoculate size 10^5); 5.0 % by weight in the assay on Enterobacter (Enterobacter 921 × 57514, inoculate size 10^3); 10.0 % by weight with Enterobacter (Enterobacter 921 × 57514, inoculate size 10^5); 5.0 % by weight against Enterobacter (Enterobacter 921 × 57574, inoculate size 10^3); 10.0 % by weight with Enterobacter (Enterobacter 921 × 57574, inoculate size 10^5). The “MIC (% by weight of pentane-1,5-diol)” value in the assay with S. maltophilia (S. maltophilia 515 × 695) was found to be 5.0 % by weight; with S. maltophilia (S. maltophilia 515 × 1269), 2.5 % by weight; with S. maltophilia (S. maltophilia 516 × 679) it was 5.0 % by weight; in the assay with S. maltophilia (S. maltophilia 900 × 1230), 5.0 % by weight; against S. maltophilia (S. maltophilia 921 × 16157) it was 5.0 % by weight.
